From patent US8853230B2, “Inhibitors of JAK” (Portola Pharmaceuticals, Inc., priority 2009, dated 2014)
pIC50: −log10 of the molar value.

Tests used:
[1] = biological target: Syk (Homo sapiens, UniProt P43405); assay: Syk IC50 (Table 1; method not given); format: biochemical
[2] = biological target: T1, JAK2 (Homo sapiens, UniProt O60674); assay: Z'-LYTE kinase assay, JAK2 tyrosine phosphorylation activity; format: biochemical
T1 construct: 5 μl of catalytic domain recombinant Kinase enzyme+Tyr peptide substrate (Invitrogen, Calif.); purchased Invitrogen
How it was run: (§1)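 Recombinant catalytic-domain kinase was incubated with coumarin/fluorescein-labelled Tyr6 peptide, ATP and compound (1% DMSO final) for 1 h at room temperature. Protease development then ran 1 h at room temperature. Emission ratio at 445/520 nm (excitation 400 nm) gave percent phosphorylation; IC50s came from 4-parameter logistic fits.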

[3] = biological target: T2, JAK3 (Homo sapiens, UniProt P52333); assay: Z'-LYTE kinase assay, JAK3 tyrosine phosphorylation activity; format: biochemical
T2 construct: 5 μl of catalytic domain recombinant Kinase enzyme+Tyr peptide substrate (Invitrogen, Calif.); purchased Invitrogen
How it was run: as §1

[4] = biological target: T3, JAK1 (Homo sapiens, UniProt P23458); assay: Z'-LYTE kinase assay, JAK1 tyrosine phosphorylation activity; format: biochemical; settings: read-out: JAK 1 IC50
T3 construct: 5 μl of catalytic domain recombinant Kinase enzyme+Tyr peptide substrate (Invitrogen, Calif.); purchased Invitrogen
How it was run: as §1

[5] = biological target: T4, TYK2 (Homo sapiens, UniProt P29597); assay: Z'-LYTE kinase assay, TYK2 tyrosine phosphorylation activity; format: biochemical
T4 construct: 5 μl of catalytic domain recombinant Kinase enzyme+Tyr peptide substrate (Invitrogen, Calif.); purchased Invitrogen
T4 sequence (P29597 897-1176 limits assumed): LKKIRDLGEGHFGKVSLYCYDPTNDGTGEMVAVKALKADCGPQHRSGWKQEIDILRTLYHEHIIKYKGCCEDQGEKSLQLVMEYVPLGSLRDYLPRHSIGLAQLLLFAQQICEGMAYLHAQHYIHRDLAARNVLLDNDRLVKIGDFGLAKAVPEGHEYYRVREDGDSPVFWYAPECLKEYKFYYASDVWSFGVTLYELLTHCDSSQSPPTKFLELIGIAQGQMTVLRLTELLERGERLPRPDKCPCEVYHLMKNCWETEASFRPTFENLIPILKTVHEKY
How it was run: as §1

[6] = tested on: IL4-induced phospho STAT6 formation in Ramos B lymphocytes; assay: Inhibition of IL4-induced phospho STAT6 formation in Ramos B lymphocytes (flow cytometry); format: cell-based, human; settings: Homo sapiens; for inhibition at 0.2 µM: 200 nM compound, read-out: % Inhibition of IL-4 Induced STAT6 Phosphorylation 200 nM; for inhibition at 1 µM: 1 μM compound, read-out: % Inhibition of IL-4 Induced STAT6 Phosphorylation 1 μM
How it was run: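 Human Ramos B cells (0.5 million) pre-incubated 1 h at 37°C/5% CO2 with compound or DMSO, then stimulated with 1 ng/ml IL4 for 10 min. Cells were PFA-fixed, methanol-permeabilized and stained with Alexa-anti-phosphoSTAT6 (Y641); flow cytometry mean fluorescence gave percent inhibition of the IL4 signal.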

T1 sequence (O60674 849-1124 limits assumed): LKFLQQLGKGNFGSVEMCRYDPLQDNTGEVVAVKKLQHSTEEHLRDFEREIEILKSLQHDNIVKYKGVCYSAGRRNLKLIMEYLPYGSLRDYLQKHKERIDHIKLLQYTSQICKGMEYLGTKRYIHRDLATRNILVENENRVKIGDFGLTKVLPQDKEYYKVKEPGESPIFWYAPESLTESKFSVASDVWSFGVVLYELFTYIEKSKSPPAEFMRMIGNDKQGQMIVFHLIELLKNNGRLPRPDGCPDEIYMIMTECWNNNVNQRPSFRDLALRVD
T2 sequence (P52333 822-1111 limits assumed): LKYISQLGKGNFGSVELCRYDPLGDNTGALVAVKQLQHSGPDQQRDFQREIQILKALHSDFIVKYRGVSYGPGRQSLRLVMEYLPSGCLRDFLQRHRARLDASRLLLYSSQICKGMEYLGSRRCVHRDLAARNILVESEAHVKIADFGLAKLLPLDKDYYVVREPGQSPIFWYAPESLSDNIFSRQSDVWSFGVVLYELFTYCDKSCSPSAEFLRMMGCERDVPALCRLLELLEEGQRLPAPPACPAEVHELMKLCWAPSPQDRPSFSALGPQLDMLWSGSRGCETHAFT
T3 sequence (P23458 875-1153 limits assumed): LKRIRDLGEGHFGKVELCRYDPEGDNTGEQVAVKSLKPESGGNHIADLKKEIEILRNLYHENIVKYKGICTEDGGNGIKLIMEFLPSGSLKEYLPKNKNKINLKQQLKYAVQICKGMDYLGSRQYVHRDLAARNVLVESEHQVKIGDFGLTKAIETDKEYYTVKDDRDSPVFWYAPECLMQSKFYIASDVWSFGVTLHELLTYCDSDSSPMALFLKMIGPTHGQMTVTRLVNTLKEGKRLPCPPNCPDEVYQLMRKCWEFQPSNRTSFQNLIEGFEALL

Structure (SMILES)	pIC50 [1]	pIC50 [2]	pIC50 [3]	pIC50 [4]	pIC50 [5]	inhibition at 0.2 µM [6] [%]	inhibition at 1 µM [6] [%]
CC(=O)Nc1cccc(Nc2ncc(C(N)=O)c(N[C@H]3CCC[C@@H]3O)n2)c1 (relative stereo) [Example 53, 2-(3-acetamidophenylamino)-4-((trans)-2-hydroxycyclopentylamino)pyrimidine-5-carboxamide]	6.00 to 7.00	7.00 to 8.00	8.00 to 9.00	7.00 to 8.00			
CC(=O)Nc1cccc(Nc2ncc(C(N)=O)c(NC3CCC3)n2)c1 [Example 1, 2-(3-acetamidophenylamino)-4-(cyclobutylamino)pyrimidine-5-carboxamide]	6.00 to 7.00	7.00 to 8.00	8.00 to 9.00	7.00 to 8.00			
CC(=O)Nc1cccc(Nc2ncc(C(N)=O)c(NC[C@@H](C)c3ccccc3)n2)c1 [Example 3, (S)-2-(3-acetamidophenylamino)-4-(2-phenylpropylamino)pyrimidine-5-carboxamide]	< 6.00	8.00 to 9.00	8.00 to 9.00	7.00 to 8.00			
CNc1nc(Nc2cccc(NC(C)=O)c2)ncc1C(N)=O [Example 8, 2-(3-acetamidophenylamino)-4-(methylamino)pyrimidine-5-carboxamide]	6.00 to 7.00						
CCNc1nc(Nc2cccc(NC(C)=O)c2)ncc1C(N)=O [Example 9, 2-(3-acetamidophenylamino)-4-(ethylamino)pyrimidine-5-carboxamide]	6.00 to 7.00						
C#CCNc1nc(Nc2cccc(NC(C)=O)c2)ncc1C(N)=O [Example 10, 2-(3-acetamidophenylamino)-4-(prop-2-ynylamino)pyrimidine-5-carboxamide]	6.00 to 7.00						
CC(=O)Nc1cccc(Nc2ncc(C(N)=O)c(NC(C)C)n2)c1 [Example 11, 2-(3-acetamidophenylamino)-4-(isopropylamino)pyrimidine-5-carboxamide]	6.00 to 7.00						
CC(=O)Nc1cccc(Nc2ncc(C(N)=O)c(NCC3CC3)n2)c1 [Example 12, 2-(3-acetamidophenylamino)-4-(cyclopropylmethylamino)pyrimidine-5-carboxamide]	6.00 to 7.00						
CC(=O)Nc1cccc(Nc2ncc(C(N)=O)c(NC(C)(C)C)n2)c1 [Example 13, 2-(3-acetamidophenylamino)-4-(tert-butylamino)pyrimidine-5-carboxamide]	6.00 to 7.00						
COCCNc1nc(Nc2cccc(NC(C)=O)c2)ncc1C(N)=O [Example 14, 2-(3-acetamidophenylamino)-4-(2-methoxyethylamino)pyrimidine-5-carboxamide]	6.00 to 7.00						
CC(=O)Nc1cccc(Nc2ncc(C(N)=O)c(NC3CCCC3)n2)c1 [Example 15, 2-(3-acetamidophenylamino)-4-(cyclopentylamino)pyrimidine-5-carboxamide]	6.00 to 7.00	7.00 to 8.00	8.00 to 9.00	7.00 to 8.00			
COCCCNc1nc(Nc2cccc(NC(C)=O)c2)ncc1C(N)=O [Example 16, 2-(3-acetamidophenylamino)-4-(3-methoxypropylamino)pyrimidine-5-carboxamide]	6.00 to 7.00						
CC(=O)Nc1cc(Nc2ncc(C(N)=O)c(NCc3ccccc3)n2)ccc1OCCN1CCCC1 [Example 244, 2-(3-acetamido-4-(2-(pyrrolidin-1-yl)ethoxy)phenylamino)-4-(benzylamino)pyrimidine-5-carboxamide]		7.00 to 8.00	> 9.00	7.00 to 8.00	8.00 to 9.00	51.3	94.7
CC(C)[C@H](C)Nc1nc(Nc2ccc(Cl)c(NC(=O)N3CCCC3)c2)ncc1C(N)=O [Example 248, (S)-2-(4-chloro-3-(pyrrolidine-1-carboxamido)phenylamino)-4-(3-methylbutan-2-ylamino)pyrimidine-5-carboxamide]		< 6.00	7.00 to 8.00	7.00 to 8.00	7.00 to 8.00	61.3	94.7
